Results taken from patent US7857804B2, “Use of Bcl inhibitors for the prevention of fibroproliferative reclosure of dilated blood vessels and other iatrogenic fibroproliferative disorders” (priority 2006, dated 2010).

Tests used:
[1] = tested on: cell line R1 (human cell line derived from carotid artery atherosclerotic lesion); test: MTT cell survival after fas ligation (CH11), cell line R1; format: cell-based
Method: (§1) Cells for study were derived from human carotid artery atherosclerotic lesions, by published methods. Additionally, cell lines were subcloned and tested for sensitivity to fas ligation. In the present studies, clonal lines with known resistance to fas ligation were used.
(§2) Induction of apoptosis was achieved by reduction of serum concentration from 10% to 1% FBS for 24 hours prior to adding an activating antibody to fas (CH11, Upstate Biotechnology) at a typical concentration of 50-500 ng/ml. Typically 24-48 hours after fas ligation by CH11, cell survival was determined by measuring metabolic activity by the MTT method.
However, in the presence of fas, the cells pretreated with BCLI underwent a high degree of apoptosis (70% cell death). […] Thus, the drug is neither toxic nor capable of inducing apoptosis alone at this concentration.
Referring to FIG. 1, A human cell line derived from carotid artery atherosclerotic lesion was plated at known density and then subgroups of 3 wells were treated with various drugs prior to exposure to fas ligation by the activating CH11 antibody (+fas). Pretreatment with flavopiridol (Flavo, 50 nM) or BCLI (Bcl-inh, 20 μM or 100 μM) was followed 24 hours later by addition of CH11 activating antibody to fas (50 ng/ml). After fas ligation, cell survival was evaluated 24 hours later by measuring the number of viable cells using the metabolic dye MTT, which is converted to a blue dye that absorbs at 570 nm. Values reflect the mean±s.e.m. (n=3 per group).

[2] = tested on: R1GFP (human atherosclerosis-derived cell line with known resistance to fas ligation); test: MTT cell survival after fas ligation (CH11), GFP-only expressing cell line; format: cell-based; settings: for effect on cell survival in the absence of fas (drug alone): AA3 20 μg/ml, no CH11
Method: as §1, §2
In addition to the BCL-inhibitor, this sensitizing effect was also observed with AA. As above, a human atherosclerosis-derived cell line with known resistance to fas ligation was used for study. In this case, the cell line was stably infected with a retrovirus expressing either an irrelevant marker gene (green fluorescent protein, GFP) or the marker gene and Bcl-Xl. In the GFP-only expressing cell line (R1GFP), fas ligation (50 ng/ml CH11) in low serum (1% FBS) led to only 15% cell death (85% survival) (see FIG. 2).
(§3) Referring to FIG. 2, human atherosclerosis-derived cells were pretreated with the specified drugs for 24 prior to treatment with the activating fas antibody CH11 (50 ng/ml). […] The drugs used were AA (20 μg/ml), BCLI (20 μM), interferon-gamma (IFN, 50 U/ml), and SP600125 (SP, 20 μM). The upper panel reports the MTT optical density (absorbance at 570 nm) without (control) or with fas ligation (+fas) as the mean, with error bars indicating±standard error of measurement (s.e.m., n=3 per group). The lower panel expresses % survival based on the MTT values above (MTT+fas/MTT Control)×100.

[3] = tested on: R1 cells over-expressing Bcl-Xl (R1 bclXL); test: MTT cell survival after fas ligation (CH11), R1 cells over-expressing Bcl-Xl; format: cell-based, human; settings: AA 20 μg/ml; BCLI 20 μM; IFN 50 U/ml; SP 20 μM; CH11 50 ng/ml
Method: as §2
In one example, to determine whether the effect of BCLI and AA was via interaction with their intended targets (Bcl-Xl and Bcl-2), the drugs were tested in R1 cells over-expressing Bcl-Xl (R1 bclXL).
as §3

Human lesion cells = test: MTT assay for sensitivity to fas-induced apoptosis in human lesion cells; format: cell-based; settings: for death with fas ligation (sensitivity to apoptosis): 24 h, 20% death without drug
Method: as §1, §2
FIG. 3 depicts the effect of 2-methoxy-antimycin A3 (AA3) and gossypol on the sensitivity to apoptosis in human lesion cells. Human lesion cells were plated and treated as above for 24 hours with the specified concentrations of drug. Fas ligation was initiated with 50 ng/ml of activating antibody CH11 and 24 hours later the number of cell surviving was measured by their metabolism of MTT. Bars are mean±s.d. (n=4 per group). A reduction in MTT levels indicates cell death.
FIG. 4 depicts the effect of HA14-1 and 2,3-DCPE on sensitivity to fas-induced apoptosis. Human lesion cells were plated and treated as above for 24 hours with the specified concentrations […] of HA14-1 (H) or 2,3-DCPE (D). Fas ligation was initiated with 50 ng/ml of activating antibody CH11 and 24 hours later the number of cell surviving was measured by their metabolism of MTT. Bars are mean±s.d. (n=2 per group). A reduction in MTT levels indicates cell death.

2,9-dimethoxy-11,12-dihydrodibenzo[c,g][1,2]-diazocine 5,6-dioxide (A) and 5,5′-Dimethoxy-2,2′-dinitrosobenzyl (B) [BCLI]
effect upon cell survival in the absence of the activating antibody to fas ([1]; 20 μM, no CH11): little or no effect | effect on cell survival in the absence of fas ligation ([1]; 100 μM, no CH11): substantial effect on cell survival | cell death (apoptosis) in the presence of fas ([1]; BCLI pretreatment 20 μM, 24 h, CH11 50 ng/ml, MTT 24 h later): 70% | effect on cell survival in the absence of fas (drug alone) ([2]; BCLI 20 μM): slightly more apoptosis alone | effectiveness in Bcl-Xl over-expressing cells compared with GFP control cells [3]: markedly less effective

CCCC[C@H]1C(=O)O[C@H](C)[C@H](NC(=O)c2cccc(NC=O)c2OC)C(=O)O[C@@H](C)[C@@H]1OC(=O)CC(C)C [AA3, 2-methoxyantimycin A3]
apoptosis in the presence of fas ([2]; 24 hour pretreatment 20 μg/ml, CH11 50 ng/ml, 1% FBS): 70% | effect on cell survival in the absence of fas (drug alone) ([2]; BCLI 20 μM): only a small effect on cell survival | death with fas ligation (sensitivity to apoptosis) (Human lesion cells; 10 μg/ml, CH11 50 ng/ml): 80% | death with fas ligation (sensitivity to apoptosis) (Human lesion cells; 20 μg/ml, CH11 50 ng/ml): 80% | death in the absence of fas ligation (Human lesion cells; AA3 at higher concentrations (above 20 μg/ml), no fas ligation): induced death even in the absence of fas ligation

CCOC(=O)C1=C(N)Oc2ccc(Br)cc2C1C(C#N)C(=O)OCC (centres unmarked) [HA14-1, Ethyl-2-amino-6-bromo-4-(1-cyano-2-ethoxy-2-oxoethyl)-4H-chromene-3-carboxylate]
fas-independent death-inducing effect (Human lesion cells; 25-100 μM): fas-independent death-inducing effect | ability to sensitize cells to fas-induced apoptosis (Human lesion cells; HA14-1, all tested concentrations, CH11 50 ng/ml): did not demonstrate any ability to sensitize cell to apoptosis

Antimycin A [AA]
effectiveness in Bcl-Xl over-expressing cells compared with GFP control cells [3]: markedly less effective

Cl.OCCNCCCOc1cccc(Cl)c1Cl [DCPE, 2,[[3-(2,3-dichlorophenoxy)propyl]amino]ethanol-HCl]
fas-dependent sensitization to apoptosis (Human lesion cells; only at the highest tested dose of 100 μM, CH11 50 ng/ml): significant fas-dependent sensitization to apoptosis

interferon-gamma: interferon-gamma, a known sensitizing agent
sensitizing effect to fas ligation (in words) ([2]; BCLI 20 μM, interferon-gamma 50 U/ml, SP600125 20 μM, CH11 50 ng/ml): comparable effect | effectiveness in Bcl-Xl over-expressing cells compared with GFP control cells [3]: less effective

Cc1cc2c(C(C)C)c(O)c(O)c(C=O)c2c(O)c1-c1c(C)cc2c(C(C)C)c(O)c(O)c(C=O)c2c1O [Gossypol, 2,2′-bis(8-Formyl-1,6,7-trihydroxy-5-isopropyl-3-methylnaphthalene)]
survival in the presence of fas (Human lesion cells; 2.5 μM, CH11 50 ng/ml, 80% survival without drug): 50%
